“Also recorded” adds a separate entry of the source. Ends that are not written are not given here.
Key:
LC3 and GABARAP families = settings: cited from earlier work
Description: However, despite the ever‐increasing number of LC3/GABARAP interaction partners identified and perhaps the over‐reliance on LC3B as the main marker of autophagosomes, there is now emerging distinct roles of each LC3 and GABARAP subfamily. For example, both LC3 and GABARAP families are essential for autophagy flux 29; however, LC3s were reported to be involved in phagophore extension and GABARAPs required for autophagosome closure 29. Moreover, GABARAP can activate ULK1 complex to initiate autophagy, irrespective of its conjugation status 28. Indeed, this is also reflected in C. elegans homolog ...

[1] = system: 6xHis-tagged LC3B and 6xHis-tagged GABARAP; assay: Peptide array, preference GABARAP versus LC3B (absorbance ratio); assay type: binding, human; settings: absorbance GABARAP/LC3B or LC3B/GABARAP, cut-off 1.5-fold, mean of n = 3, Figs 1A, EV1B and C
Description: A high number of autophagy receptors or adaptor structures have been reported, yet the basis for their selective interaction with individual members of the ATG8 family is not well understood. We speculated whether the LIR motif alone is able to confer selectivity towards a mATG8 subfamily and whether we could derive a subfamily consensus motif from analysis of known mATG8 interaction partners. To address this question, we screened an array of peptides (presented in Fig EV1A and described in Materials and Methods) with the LIR sequences of 30 known and validated autophagy receptors and adaptors (Table 1) against all six human mATG8s for binding (Figs 1A and EV1B and C). In brief, biotinylated peptides were immobilized on streptavidin‐coated 96‐well plates and incubated with His6‐tagged mATG8 proteins. After washing steps, peptide‐bound mATG8 was detected in an ELISA reader using anti‐His antibodies directly conjugated to HRP (horse radish peroxidase; Fig EV1A).
Dashed red line depicts 1.5‐fold change cut‐off.
Due to the wide range of affinities of various LIR sequences towards the LC3/GABARAP proteins, we have normalized our results by dividing values for LC3B interaction by the corresponding value for interaction with GABARAP (Fig 1A, purple bars) and vice versa (Fig 1A, blue bars) to highlight the potential subfamily selectivity of each LIR sequence tested. We classified ratios greater than 1.5‐fold as an indication of a preferential interaction towards that particular LC3 or GABARAP family member. […] Using this information, we generated a sequence plot (Fig 1B) to ascertain whether there were any common sequence features of the GABARAP‐specific interaction proteins. In addition to the 12 sequences identified in this experiment as preferential GABARAP subfamily interactors, we also included known GABARAP interactors that were not included in our screen (ALFY and KBTBD7). […] The previously identified PLEKHM1‐LIR 19 has a high degree of similarity to this sequence. […] However, it is unclear whether this is the case in vivo.
Biotinylated peptides (JPT, Germany) were immobilized on streptavidin‐coated 96‐well plates (#436014; Thermo Scientific) in 100 μl PBS containing 0.1% Tween‐20 (PT) and 1% BSA (PTB) overnight on a shaker at 8°C. After three washing steps with 200 μl PT, 100 μl of 1 μM HIS6‐tagged mATG fusion proteins isolated from E. coli in PTB was incubated with the immobilized peptides for 1 h at 8°C. After three washing steps with 200 μl PT, HIS6‐ATG8 bound to peptides was detected after 1‐h incubation with anti‐HIS‐HRP antibody (JP‐A00612; Genscript; 1:5,000 in 100 μl PTB) with the help of TMB substrate Reagent Set (BD OptEIA; 75 μl). The reaction (blue coloration) was stopped by addition of 60 μl 1 M H3PO4. Samples were analysed on a Synergy H1 ELISA reader from BioTek at 450 nm.

all six mATG8 proteins = assay: Peptide array (ELISA), all six mATG8s; settings: 450 nm, Fig 3E, n = 4
6xHis-tagged LC3B = assay: Peptide array (ELISA), LC3B; settings: mean ± SEM n = 5, Fig 4B
LC3B = target: T1, LC3B (Homo sapiens, UniProt Q9GZQ8); assay: ITC titration of PLEKHM1-LIR peptides into LC3B; assay type: binding; settings: ITC, 25°C, pH 7.0; 0.4 mM peptide into 0.020 mM protein; one-site model
T1 construct: modified Ub-leader (ubiquitin fusion leader) (N); made in house; host or cells: E. coli NEB T7 Express
Protocol: The genes for the truncated LC3A^2–121, LC3C^8–125, GABARAP^2–117 and GABARAP‐L1^2–117 proteins were cloned into pET30ΔSE vector between the BamHI and XhoI sites using previously established protocols 38. The chimeric constructs of the PLEKHM1‐LIR attached to the LC3A, GABARAP and GABARAP‐L1 proteins were prepared by inserting the oligonucleotide sequence corresponding to the PLEKHM1‐LIR peptide (P^629[…]^638) and glycine–serine linker into the BamHI site of the pET30ΔSE vector, placing the PLEKHM1‐LIR at the N‐terminal of the mature chimeric protein (similar to 31, 38). For the expression of human LC3 and GABARAP proteins for ITC and NMR experiments, plasmids with appropriate modified Ub‐leaders in pET vectors were used 39. Gene, encoding PLEKHM1‐LIR peptide, was ordered as synthetic oligonucleotides (Eurofins Genomics GmbH) and cloned into the pET39_Ub63_ vector 39 by NcoI–BamHI restriction sites. After TEV cleavage, the resulting peptide has the amino acid sequence GAMG‐P^629[…]^642, where the first four residues (GAMG) are the cloning artefact.
The chimeric constructs were expressed as a His‐tag fusion protein in E. coli BL21(DE3) cells. The cells were induced with 0.3 mM IPTG at OD600 0.6 for 16 h at 26°C. The cell pellets were lysed using mechanical sonication in lysis buffer (20 mM Tris–HCl pH 9.0, 100 mM NaCl, 10 mM imidazole, supplemented with 0.1% Triton X‐100). The proteins were purified using Ni‐NTA beads (GE Healthcare) and the His‐tag was cleaved using thrombin (Invitrogen) at room temperature for 16 h. The last step was gel filtration chromatography using a Superdex S200/300 GL column (GE Healthcare). The proteins were concentrated using spin concentrators (Vivaspin). For ITC and NMR studies, the non‐labelled and stable isotopes labelled LC3 and GABARAP proteins were obtained based on the protocols described elsewhere 30, 39. Here, E. coli NEB T7 Express culture transformed with corresponding plasmids were grown till OD600 nm = 1.0 and protein expression was induced with 0.2 mM IPTG. The cultures were incubated at 25°C for 8–12 h before cell harvesting. Isolation and purification procedures were similar to those reported in Ref. 22, 40. Before experiments, all proteins and peptides were equilibrated with a buffer containing 50 mM Na2HPO4, 100 mM NaCl at pH 7.0, and supplied with 5 mM protease inhibitor cocktail.
The protocol for preparation of non‐labelled and ^13C,^15N‐labelled PLEKHM1‐LIR peptide was slightly modified to achieve highest yield of the peptide. The 50 ml M9 culture was inoculated with NEB T7 cell transformed with pET39_Ub63‐PLEKHM1‐LIR plasmid and grown overnight at 37°. The collected cells were resuspended in 2 l of either LB or M9 media contained 1.5 g ^15N‐labelled NH4Cl and 3.0 g of ^13C‐labelled glucose. The cultures were grown at 37° till A(600 nm) = 0.9 and supplied with 1 mM of IPTG to induce Ub63‐PLEKHM1‐LIR overexpression (3 h at 37°). After that cells were harvested by centrifugation, re‐suspended in buffer contained 50 mM Tris–HCl pH = 7.9, 200 mM NaCl, 5% glycerol, 0.1 mg/ml DNase A and 4 mM protease inhibitor cocktail. After cell lysis by French press, debris was removed by centrifugation and clear supernatant was applied onto the column contained Ni‐NTA Sepharose equilibrated with the loading buffer (50 mM Tris–HCl pH = 7.9, 250 mM NaCl, 1% glycerol and 20 mM imidazole). Elution was performed with 400 mM imidazole in the same buffer. An aliquot of pure Ub63‐PLEKHM1‐LIR fractions was further purified by gel filtration on Superdex75 26 × 60 column for control ITC and analytical size exclusion chromatography experiments, remaining fusion protein was processed with the TEV‐protease and PLEKHM1‐LIR peptide was purified to 95% purity by reverse Ni‐NTA chromatography and followed gel filtration on Superdex75 26 × 60 column. Peak maximum of peptide was detected at […] (void volume 115 ml). Pure peptide was concentrated in Amicon concentrators with cut‐off of 3 kDa (> 95% retention). […]

For “DAVFDIITD [FYCO1, LIR peptide 1277–1285; in b48 the protein]”, the subfamily specificity (LC3 and GABARAP families) is given as “LC3A‐specific adaptor”.

For DDFWVRVAP [KTBD6, LIR peptide 665–673], the “preference GABARAP versus LC3B” value ([1]; listed as KBTBD6) was “strong preference for GABARAP versus LC3B” and the “preference GABARAP versus LC3B” value ([1]; listed as KBTDB6) was “clear specificity towards GABARAP versus LC3B”.

In the case of “DDSYEVLDL [FUNDC1, LIR peptide 152–160 (so in the source)]”, the “preference GABARAP versus LC3B” value [1] is reported as “preferentially interacted with the LC3 group; also recorded: only LC3‐selective LIR; also recorded: only LC3B‐specific LIR”.

With “EDEAVNAQY [W635A/V638A, reference compound]” the “interaction with all mATG8s, alanine scan” value (all six mATG8 proteins) was “completely disrupted all LIR–mATG8 interactions”.

In the case of EDEWCFLQY, the “interaction with LC3B, core motif combinations” value (6xHis-tagged LC3B) is reported as “increased the interaction of PLEKHM1‐LIR with LC3B”.

Work on EDEWCILQY [WCIL] yielded a Kd (LC3B) of 300 nM.

For EDEWCVLQY, the “interaction with LC3B, core motif combinations” value (6xHis-tagged LC3B) was “increased the interaction of PLEKHM1‐LIR with LC3B”.

For EDSFVEIRM [OPTN, LIR peptide 175–183], the “subfamily preference after phosphorylation” value (LC3 and GABARAP families; TBK1 phosphorylation at S177) is given as “switches to LC3B” and the subfamily preference (LC3 and GABARAP families; unmodified state) is given as “clearly shows preference for GABARAP”.

— paper PMC5538626, “Structural and functional analysis of the GABARAP interaction motif (GIM)” (EMBO Reports, 2017)
